Test results published in PMC6271041, “Synthesis and Biological Evaluation of Novel 2-Arylalkylthio-5-iodine-6-substituted-benzyl-pyrimidine-4(3H)-ones as Potent HIV-1 Non-Nucleoside Reverse Transcriptase Inhibitors” (Molecules, 2014).

Key:
HIV-1 RT = biological target: T1, HIV-1 RT (Human immunodeficiency virus type 1 group M subtype B, UniProt P04585); assay: Inhibitory activity against HIV-1 RT (biotin-dUTP incorporation, colorimetric); assay type: biochemical; settings: for IC50: mean of three separate experiments, variation less than 15%
T1 construct: The biotin-dUTP was incorporated by reverse transcriptase (Sigma, St. Louis, MO, USA); purchased Sigma
Protocol: Oligo(dT) (TaKaRa Co., Otsu, Japan) was immobilized via its 5'-terminal phosphate to Covalink-NH microtiter plates (NUNC Co., Roskilde, Denmark). The biotin-dUTP was incorporated by reverse transcriptase (Sigma, St. Louis, MO, USA). Briefly, a serial concentration of inhibitor was added to the mixture, which contained 50 mmol/L Tris-HCl (pH 8.3), 3 mmol/L MgCl2, 75 mmol/L KCl, 5 mmol/L DTT, 0.13 mg/mL BSA, 10 μg/mL poly (A), 0.75 μM biotin-11-Dutp, 1.5 μM dTTP and HIV-1 RT. After incubation at 37 °C for 1h, washing buffer, which contained 50 mmol/L Tris-HCl (pH 7.5), 0.15 mol/L NaCl, 0.05 mmol/L MgCl2 and 0.02% Tween20, was used to wash the plate. Then each well of the plate was added […] 1% BSA and incubated at room temperature for another 30 min. The plate was washed with the same buffer for 3 times. Before further incubation at 37 °C for 1 h, 50 μL of alkaline phosphatase streptavidin (SA-ALP) solution (100 ng/mL) was added to each well and washed again as above. Finally, 50 μL of p-nitrophenyl phosphate, disodium (PNPP, 1 mg/mL, pH 9.5) was added and incubated at 37 °C for 30 min. 0.5 mol/L NaOH was added to stop the reaction and a colorimetric streptavidin-alkaline phosphatase reporter system was used to detect and quantify the result.

HIV-1SF33 = assay: Inhibitory activity on HIV-1SF33 infection in TZM-bl cells (p24 ELISA); assay type: cell-based; settings: Human immunodeficiency virus 1, 168 h, read-out: EC50 /SF33, concentration inhibiting 50% viral replication, HIV-1SF33 infection in TZM-bl cell line, 7 days
Protocol: TZM-bl cells, HIV-1SF33 were obtained from the NIH AIDS Research and Reference Reagent Program (Germantown, MD, USA). The inhibitory activity of the compounds on infection by a laboratory-adapted HIV-1 strain SF33 was tested in TZM-bl cells. Briefly, TZM-bl cells (4 × 10^4/well) were infected by addition of 200 TCID50 of HIV-1, followed by incubation for 2 h at 37 °C before addition of compounds at serial dilutions.

Compound	IC50 (HIV-1 RT)	melting point	EC50 (HIV-1SF33)	fold more active compared to nevirapine (HIV-1 RT IC50) (HIV-1 RT)
Cc1cc(C)cc(Cc2cc(=O)[nH]c(SCCc3ccc([N+](=O)[O-])cc3)n2)c1 [7n, 2-(4-Nitrophenethylthio)-6-(3,5-dimethylbenzyl)uracil]	1.4 µM	212 to 215 °C	6.12 µM	
Cc1cc(C)cc(Cc2cc(=O)[nH]c(SCCOc3ccc([N+](=O)[O-])cc3)n2)c1 [7q, 2-(2-(4-Nitrophenoxy)ethylthio)-6-(3,5-dimethylbenzyl)uracil]	0.59 µM	210 to 214 °C	5.07 µM	
O=c1cc(Cc2cc(F)cc(F)c2)nc(SCCCOc2ccccc2)[nH]1 [7u, 2-(Phenoxypropylthio)-6-(3,5-difluorobenzyl)uracil]	14.4 µM	100 to 101 °C		
O=c1cc(Cc2ccccc2)nc(SCOCc2ccccc2)[nH]1 [7v, 2-(Benzyloxymethylthio)-6-benzyluracil]	12.9 µM	118 to 120 °C		
Cc1cc(C)cc(Cc2cc(=O)[nH]c(SCOCc3ccccc3)n2)c1 [7w, 2-(Benzyloxymethylthio)-6-(3,5-dimethylbenzyl)uracil]	1.82 µM	134 to 136 °C		
O=c1[nH]c(SCc2ccc([N+](=O)[O-])cc2)nc(Cc2ccccc2)c1I [8a, 2-(4-Nitrobenzylthio)-5-iodine-6-benzyluracil]	9.2 µM	207 to 210 °C		
Cc1cc(C)cc(Cc2nc(SCc3ccc([N+](=O)[O-])cc3)[nH]c(=O)c2I)c1 [8b, 2-(4-Nitrobenzylthio)-5-iodine-6-(3,5-dimethylbenzyl)uracil]	1.66 µM	224 to 228 °C		
O=c1[nH]c(SCc2ccc([N+](=O)[O-])cc2)nc(Cc2cc(F)cc(F)c2)c1I [8c, 2-(4-Nitrobenzylthio)-5-iodine-6-(3,5-difluorobenzyl)uracil]	5.5 µM	203 to 206 °C		
N#Cc1ccc(CSc2nc(Cc3ccccc3)c(I)c(=O)[nH]2)cc1 [8d, 2-(4-Cyanobenzylthio)-5-iodine-6-benzyluracil]	10.6 µM	223 to 226 °C		
Cc1cc(C)cc(Cc2nc(SCc3ccc(C#N)cc3)[nH]c(=O)c2I)c1 [8e, 2-(4-Cyanobenzylthio)-5-iodine-6-(3,5-dimethylbenzyl)uracil]	4.03 µM	224 to 227 °C		
N#Cc1ccc(CSc2nc(Cc3cc(F)cc(F)c3)c(I)c(=O)[nH]2)cc1 [8f, 2-(4-Cyanobenzylthio)-5-iodine-6-(3,5-difluorobenzyl)uracil]	4.49 µM	216 to 219 °C		
CC(=O)c1ccc(CSc2nc(Cc3ccccc3)c(I)c(=O)[nH]2)cc1 [8g, 2-(4-Acetylbenzylthio)-5-iodine-6-benzyluracil]	13.8 µM	219 to 220 °C		
CC(=O)c1ccc(CSc2nc(Cc3cc(C)cc(C)c3)c(I)c(=O)[nH]2)cc1 [8h, 2-(4-Acetylbenzylthio)-5-iodine-6-(3,5-Dimethylbenzyl)uracil]	0.41 µM	201 to 203 °C	1.06 µM	about 10 fold
CC(=O)c1ccc(CSc2nc(Cc3cc(F)cc(F)c3)c(I)c(=O)[nH]2)cc1 [8i, 2-(4-Acetylbenzylthio)-5-iodine-6-(3,5-difluorobenzyl)uracil]	4.03 µM	205 to 206 °C		
COC(=O)c1ccc(CSc2nc(Cc3ccccc3)c(I)c(=O)[nH]2)cc1 [8j, 2-(4-Methoxycarbonylbenzylthio)-5-iodine-6-benzyluracil]	3.64 µM	214 to 216 °C		
COC(=O)c1ccc(CSc2nc(Cc3cc(C)cc(C)c3)c(I)c(=O)[nH]2)cc1 [8k, 2-(4-Methoxycarbonylbenzylthio)-5-iodine-6-(3,5-dimethylbenzyl)uracil]	1.11 µM	208 to 211 °C		
COC(=O)c1ccc(CSc2nc(Cc3cc(F)cc(F)c3)c(I)c(=O)[nH]2)cc1 [8l, 2-(4-Methoxycarbonylbenzylthio)-5-iodine-6-(3,5-difluorobenzyl)uracil]	0.71 µM	210 to 213 °C		about 10 fold
O=c1[nH]c(SCCc2ccc([N+](=O)[O-])cc2)nc(Cc2ccccc2)c1I [8m, 2-(4-Nitrophenethylthio)-5-iodine-6-benzyluracil]	8.64 µM	209 to 212 °C		
Cc1cc(C)cc(Cc2nc(SCCc3ccc([N+](=O)[O-])cc3)[nH]c(=O)c2I)c1 [8n, 2-(4-Nitrophenethylthio)-5-iodine-6-(3,5-dimethylbenzyl)uracil]	0.7 µM	220 to 221 °C	3.84 µM	about 10 fold
O=c1[nH]c(SCCc2ccc([N+](=O)[O-])cc2)nc(Cc2cc(F)cc(F)c2)c1I [8o, 2-(4-Nitrophenethylthio)-5-iodine-6-(3,5-difluorobenzyl)uracil]	6.88 µM	220 to 221 °C		
O=c1[nH]c(SCCOc2ccc([N+](=O)[O-])cc2)nc(Cc2ccccc2)c1I [8p]	6.28 µM	204 to 205 °C		
Cc1cc(C)cc(Cc2nc(SCCOc3ccc([N+](=O)[O-])cc3)[nH]c(=O)c2I)c1 [8q]	1.31 µM	215 to 218 °C	9.44 µM	
O=c1[nH]c(SCCOc2ccc([N+](=O)[O-])cc2)nc(Cc2cc(F)cc(F)c2)c1I [8r, 2-(2-(4-Nitrophenoxy)ethylthio)-5-Iodine-6-(3,5-difluorobenzyl)uracil]	2.56 µM	224 to 226 °C	4.1 µM	
O=c1[nH]c(SCCCOc2ccccc2)nc(Cc2ccccc2)c1I [8s, 2-(Phenoxypropylthio)-5-iodine-6-benzyluracil]	5.88 µM	135 to 137 °C		
Cc1cc(C)cc(Cc2nc(SCCCOc3ccccc3)[nH]c(=O)c2I)c1 [8t, 2-(Phenoxypropylthio)-5-iodine-6-(3,5-dimethylbenzyl)uracil]	12.9 µM	165 to 167 °C		
O=c1[nH]c(SCCCOc2ccccc2)nc(Cc2cc(F)cc(F)c2)c1I [8u, 2-(Phenoxypropylthio)-5-iodine-6-(3,5-difluorobenzyl)uracil]	18 µM	156 to 158 °C		
O=c1[nH]c(SCOCc2ccccc2)nc(Cc2ccccc2)c1I [8v, 2-(Benzyloxymethylthio)-5-iodine-6-benzyluracil]	10.2 µM	133 to 135 °C		
Cc1cc(C)cc(Cc2nc(SCOCc3ccccc3)[nH]c(=O)c2I)c1 [8w, 2-(Benzyloxymethylthio)-5-iodine-6-(3,5-dimethylbenzyl)uracil]	8.75 µM	200 to 202 °C		
Cc1ccnc2c1NC(=O)c1cccnc1N2C1CC1 [nevirapine, reference compound]			0.19 µM	
